What was measured:
[1] = test system: activated p65 NF-κB subunit; test: Nuclear p65 DNA binding (TransAM NF-κB ELISA) in HFB; assay type: cell-based, human; details: Aβ1-42 exposed, 4 hours
Protocol: (§1) Fetal brain materials (10-20 g) were shipped overnight in chilled Hibernate-E medium (Invitrogen) supplemented with B27 (Invitrogen), GlutaMAX (Invitrogen) and antibiotic-antimycotic solution (Cellgro). HFB were prepared and cultured as described. Briefly, cells were cultured in Neurobasal medium (Invitrogen) without phenol red supplemented with 1×B27, […] GlutaMAX, 1×antibiotic cocktail, 5 ng/mL recombinant fibroblast growth factor 2 (bFGF) (Invitrogen), and 2 μL/mL Normocin (InVivoGen, San Diego, Calif., USA). Cells were counted and seeded onto poly-D-lysine (Sigma-Aldrich) coated 24-well plates (Corning, Lowell, Mass., USA) at 1.5×10^5 cells per well and maintained at 37° C. in a 5% CO2 incubator. Half media changes were performed every 4th day of culture and morphology was monitored via phase contrast microscopy. Culture medium was removed from cells on day 17 (DIV17) and replaced with Neurobasal medium with B27. Appropriate wells were then added vehicle, or carrier peptide or individual GA or control peptide (at 50 μM) for 30 min followed by exposure to Aβ1-42 at a final concentration of 10 μM/well and incubated for 4 hours or 48 hours. Cells and conditioned media were harvested and stored for further analysis. Relative ATP concentration was measured using the CTG kit (Promega). Data is presented as ΔRLU=RLU of Aβ1-42 exposed cells-RLU unexposed cells. Conditioned media collected were assessed for specific cytokines using the OptEIA kits (BD Biosciences). Nuclear and cytoplasmic fractions were extracted using the CelLytic™ NuCLEAR™ Extraction Kit (Sigma) following manufacturer's protocol. Five microgram of nuclear extracts was incubated in a 96-well plate coated with oligonucleotides containing the NF-κβ consensus nucleotide sequence (5′-[…]-3′) (SEQ ID NO: 30). The activated NF-κβ bound to DNA was detected by anti-p65 antibody followed by a peroxidase coupled secondary antibody and substrate using the TransAM kit protocol (Active Motif). Nuclear extracts of Raji cells was used as the positive control.
(§2) Select PGA protects against Aβ1-42 induced toxicity, prevents p65 activation and cytokine response in human fetal brain (HFB) cells. […] Viability in terms of relative luminescent Units (RLU) was quantified using a Glowmax luminometer (Promega, Wis.). Data are presented as ARLU=RLU of Aβ1-42 exposed cells-RLU of unexposed cells. […] The mean RLU of vehicle treated HFB varied between 7352.75+/−1265.2 and 16157.5+/−4950. […] The culture supernatants were assessed for cytokines by ELISA (R&D Systems, Minn.). […] Primary HFB cultured similarly and harvested at the end of 4 hours was assessed for nuclear p65 using TransAM kit for NF-κB p65 (Active Motif, Calif.).

[2] = test system: primary human fetal brain cells (HFB); test: CTG viability of primary human fetal brain cultures with or without Aβ1-42; assay type: cell-based; details: for viability of Aβ1-42 exposed HFB cells: Aβ1-42 10 μM
Protocol: Functional assays in human primary mixed brain cultures (HFB). Primary cultures of mixed HFB were prepared from the brain parenchyma of aborted fetuses (80-100 days gestational age). The tissues were obtained from the Birth Defects Research Laboratory (BDRL) at the University of Washington, Seattle with approval from the Indiana University Institutional Review Board (IRB). The IRB determined that the use of anonymous human biological materials received from this depository is not considered as human subjects research (supplementary document, s1). The NIH funded BDRL tissue distribution program operates separately in full compliance with all relevant state and federal laws and regulations with donors providing written informed consent.
as §1, with “Appropriate wells were then added vehicle, or carrier peptide or individual GA or control peptide (at 50 μM) for 30 min followed by exposure to Aβ1-42 at a final concentration of 10 μM/well and incubated for 4 hours or 48 hours.” left out
as §2, with “16157.5+/−4950. Average RLU of cultures exposed to Aβ1-42 varied between 6067.25+/−903.05 and 11574.25+/−4139.3 in different experiments.” for “16157.5+/−4950.”

[3] = biological target: T1, Recombinant human p65 protein (r-p65) (Homo sapiens, UniProt Q04206); test: Plate binding ELISA of GA/PGA with r-p65 (KD by method of Friguet)
T1 construct: purchased Ori-Gene Technologies Inc., Rockville, Md; TP320780
T1 sequence (Q04206 whole entry): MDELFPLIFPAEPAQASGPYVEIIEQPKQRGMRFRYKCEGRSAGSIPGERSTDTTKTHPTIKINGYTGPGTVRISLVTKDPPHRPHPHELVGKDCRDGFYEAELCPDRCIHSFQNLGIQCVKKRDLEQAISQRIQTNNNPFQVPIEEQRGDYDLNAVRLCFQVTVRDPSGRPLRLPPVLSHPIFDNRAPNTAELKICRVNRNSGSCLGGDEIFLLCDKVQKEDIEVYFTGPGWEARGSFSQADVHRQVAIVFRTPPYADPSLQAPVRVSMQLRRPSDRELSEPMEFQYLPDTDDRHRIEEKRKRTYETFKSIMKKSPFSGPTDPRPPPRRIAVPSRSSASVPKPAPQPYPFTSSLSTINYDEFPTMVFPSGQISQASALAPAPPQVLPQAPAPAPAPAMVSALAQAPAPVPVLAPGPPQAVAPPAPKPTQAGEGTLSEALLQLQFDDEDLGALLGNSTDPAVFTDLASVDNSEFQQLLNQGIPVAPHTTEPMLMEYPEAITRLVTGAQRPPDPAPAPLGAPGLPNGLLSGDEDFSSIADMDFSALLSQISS
Protocol: We used similar method to determine direct binding kinetics of GA hexapeptides with human r-p65. […] Absorbance at 650 nm was measured with a mixing time of 30 s using BIORAD microplate reader. […] The dissociation constant of the interaction between the GA or the control peptide and r-p65 was determined by the method of Friguet et al., as described. A fraction of the bound r-p65 (x) and the ratio of bound r-p65 to the free GA or control peptide (y) was determined by the equations: x=(A0−A)/(A0), where A0 is the absorbance of r-p65anti-p65 complex in the absence of bound GA or control peptide and y=(A0−A)/(a0−i0)×(A0−A)/(A0), where a0 is the total concentration of GA or control peptide and i0 is the total concentration of r-p65.
Kinetics of PGA:-p65 interaction: The binding kinetics of top five PGA with full length human r-p65 was assessed as described. Plate bound GILZ-P or PGA at increasing concentrations was probed with r-p65-DDK (Ori-Gene Technologies Inc., Rockville, Md.) at constant concentration and detected with anti-DDK.

[4] = 50 μM peptide, vs untreated Aβ1-42 exposed cultures
[5] = PGA at IC50 concentration, 24 hours
[6] = dissociation constant, KD, method of Friguet et al.

Substance | nuclear p65 ([1]; 50 μM peptide) | viability of Aβ1-42 exposed HFB cells [2, 4] | affinity for binding r-p65 relative to r-GILZ [3] | nuclear p65 ([1]; PGA at IC50 concentration) | tolerance of HFB cultures (ΔRLU, CTG) ([2]; PGA at IC50 concentration) | viability of Aβ1-42 exposed HFB cells [2, 5] | Kd ([3]; KD (uM), score 1/0) | Kd [3, 6]
Ac-EPAPESPQV-NH2 [GA-2] | trend towards decreased nuclear p65 | significantly higher | greater affinity for binding r-p65 than the full length r-GILZ |  |  |  |  | 
Ac-EPAPLAPYG-NH2 [GA-1] | trend towards decreased nuclear p65 | significantly higher | greater affinity for binding r-p65 than the full length r-GILZ |  |  |  |  | 
Ac-EPAPESPQV-NH2 [PGA-4] |  |  |  | decreased nuclear p65 | well tolerated | significantly higher | > 3 µM | 3.28 µM
Ac-EPAPLAPYG-NH2 [PGA-2] |  |  |  | decreased nuclear p65 | well tolerated | significantly higher | < 3 µM | 2.29 µM
